According to US20040242870A1, “Antiviral methods and compounds” (priority 2000, published 2004):
Like-named read-outs stand apart in the source and are kept apart here.

What was measured:
[1] = system: HIV-1; experiment: HeLa CD4 LTR β-gal/HL2/3 HIV-1 fusion assay; format: cell-based; conditions: fusion assay
Text: This assay uses the HeLa CD4 LTR β-gal and HL2-3 cells available from the AIDS Research and Reference Reagent Repository. The HL2/3 are derived from HeLa cells and engineered to express HIV gp120 on their cell surface and Tat protein in their cytoplasma. Thus following gp 120/CD4/coreceptor-mediated fusion; cytoplasmic mixing results in the HL2/3 cell-derived Tat trans-activation of the β-galactosidase reporter. […] Twenty-four h prior to initiation of the assay cells were trypsinized, counted and 5×10^3 cells placed in a 0.2 cm well in media without selection antibiotics. To initiate the fusion assay HeLa CD4 LTR β-gal (5×10^3 cells per 0.2 cm well) were incubated with compound for 1 h at 37° C. HL2/3 cells (5×10^3) were added to the 0.2 cm well and the incubation continued for 48 h. At 48 h the wells were washed 1 time with PBS and β-galactosidase enzyme expression determined by chemiluminescence per manufacturers instructions (Tropix Gal-screen™, Tropix, Bedford, Mass.). Compound toxicity was monitored on sister plates using MTS dye reduction.

[2] = system: HeLa CD4 LTR β-gal cells; experiment: Compound toxicity in attachment assay (MTS dye reduction, sister plates); format: cell-based; conditions: read-out: TC50 (the source's name)
Description: At assay termination the assay plates were stained with the soluble tetrazolium-based dye MTS (CellTiter96® Reagent Promega) to determine cell viability and quantify compound toxicity. MTS is metabolized by the mitochondria enzymes of metabolically active cells to a soluble formazan product, allowing the rapid quantitative analysis cell viability and compound cytotoxicity. […] At termination of the assay 20 μL of MTS reagent was added per well and incubated for 4 h at 37° C. Adhesive plate sealers were used in place of the lids, the sealed plate was inverted several times to mix the soluble formazan product and the plate was read spectrophotometrically at 490 nm with a Molecular Devices Vmax plate reader.
The attachment assay was performed with the HeLa CD4 LTR , β-gal cells available from the AIDS Research and Reference Reagent Repository. […] HeLa CD4 LTR β-gal cells express cell surface CD4 and contain an LTR β-galactosidase reporter construct. Upon infection either the Tat protein incorporated into the virion or new Tat produced following virus integration and transcription trans-activates the LTR β-gal reporter, leading to expression of the β-galactosidase enzyme. HeLa CD4 LTR β-gal cells are routinely cultured with the required selection antibiotics and screened for mycoplasma contamination. Twenty-four h prior to initiation of the assay cells were trypsinized, counted and 1×10^4 cells placed in a 0.2 cm well in media without selection antibiotics. Media was removed at 24 h and compound in media placed on the cells and incubated for 15 to 30 min at 37° C. A known titer of virus was then added to the wells and the incubation continued for 1 h. At the end of the incubation the wells were washed 6 times with media and the culture continued for 48 h. At 48 h the wells were washed one time with PBS and β-galactosidase enzyme expression determined by chemiluminescence per manufacturers instructions (Tropix Gal-screen™, Tropix, Bedford, Mass.). Compound toxicity was monitored on sister plates using MTS dye reduction.

C=C(C)[C@@H]1CCC(C)=C[C@H]1c1c(O)cc(CCCCC)cc1O [Cannabidiol, reference compound]
Comments: suppression of β-galactosidase activity [1]: Suppression of β-galactosidase

CC(C)=CCCC1(C)CCc2c(O)cc(C(C)(C)CCCC(C)C)cc2O1 (stereo not shown) [IG-08, 3,4-Dihydro-2-methyl-2-(4-methyl-3-pentenyl)-7-(1,1,5-trimethylhexyl)-2H-1-benzopyran-5-ol]
CC50 ([2]; Experiment 1, pretreat 0 h): > 50 µM | CC50 ([2]; Experiment 1, pretreat 4 h): > 50 µM | CC50 ([2]; Experiment 1, pretreat 24 h): > 50 µM | CC50 ([2]; Experiment 2, pretreat 0 h): > 50 µM | CC50 ([2]; Experiment 2, pretreat 4 h): 29 µM | CC50 ([2]; Experiment 2, pretreat 24 h): 12.2 µM
